Source: US20240294522A1 (Lead Discovery Center GmbH, priority 2021, published 2024)

Legend:
GRK5 = biological target: T1, GRK5 (Homo sapiens, UniProt P34947); assay: Lance Kinase Activity Assay, GRK5; settings: biochemical Lance kinase activity assay; class symbols A-F; read-out: GRK5 LANCE Assay (IC-50)
T1 construct: purchased Thermo Scientific
Experimental: (§1) This protocol describes how the Lance Kinase Activity Assay was performed to determine IC50 values of compounds of general formula (I) against GRK5 and GRK2.
(§2) The principle behind this enzymatic assay is based upon the phosphorylation of the Ulight-peptide substrate. It is detected by using a specific EU-labeled anti-phospho peptide antibody. The binding of the Eu labeled anti-phospho peptide antibody to the phosphorylated ULight labeled peptide gives rise to a FRET-signal. Binding of an inhibitor to the kinase prevents phosphorylation of the Ulight-substrate, resulting in a loss of FRET. In tables 2 and 3 the relevant information for these two LANCE assays is summarized.
(§3) For every sample, 2 μl of assay buffer (50 mM HEPES pH 7,5, 10 mM MgCL2, 1 mM EGTA 0,01% Tween 20, 1% DMSO, 2 mM DTT) were transferred into a suitable assay plate (e.g. Corning #3673). Compounds were added in a concentration range from 10 μM to 0.0025 μM using an acoustic dispenser (Echo520 from Labcycte, San Jose, USA) equipped with Echo Dose Response software. After that 6 μl of kinase-substrate mix was added. Reaction was started by addition of 2 μl ATP working solution and mixed using a Bioshake 5000 microplate shaker (Q Instruments, Jena, Germany).
(§4) After 1 h incubation at room temperature the reaction was stopped with 10 μl detection mix containing the Eu-labeled phosphospecific antibody and 10 mM EDTA. After a second incubation period of 1 h at room temperature the FRET signal was measured at 340 nm excitation, 665 nm and 615 nm emission (for the ULight-substrate and Eu-AB, respectively) with an Envision microplate reader (Perkin Elmer, Waltham, MA, USA) with 50 μs delay and 300 μs integration time. IC50 values were determined from the sigmoidal dose response curves with the software Quattro Workflow (Quattro GmbH, Munich, Germany).
(§5) Inhibition is indicated as IC50 [nM] (“−”=not measured). Compounds having an activity designated as “A” provided an IC50≤50 nM; compounds having an activity designated as “B” provided an 50 nM<IC50≤100 nM; compounds having an activity designated as “C” provided an 100 nM<IC50≤500 nM; compounds having an activity designated as “D” provided an 500 nM<IC50≤1000 nM; compounds having an activity designated as “E” provided an 1000 nM<IC50≤10000 nM; and compounds having an activity designated as “F” provided an IC50>10000 nM.

GRK2 = biological target: T2, GRK2 (Homo sapiens, UniProt P25098); assay: Lance Kinase Activity Assay, GRK2; settings: biochemical Lance kinase activity assay; class symbols A-F; read-out: GRK2 LANCE Assay (IC-50)
T2 construct: purchased Thermo Scientific
T2 sequence (P25098 1-689): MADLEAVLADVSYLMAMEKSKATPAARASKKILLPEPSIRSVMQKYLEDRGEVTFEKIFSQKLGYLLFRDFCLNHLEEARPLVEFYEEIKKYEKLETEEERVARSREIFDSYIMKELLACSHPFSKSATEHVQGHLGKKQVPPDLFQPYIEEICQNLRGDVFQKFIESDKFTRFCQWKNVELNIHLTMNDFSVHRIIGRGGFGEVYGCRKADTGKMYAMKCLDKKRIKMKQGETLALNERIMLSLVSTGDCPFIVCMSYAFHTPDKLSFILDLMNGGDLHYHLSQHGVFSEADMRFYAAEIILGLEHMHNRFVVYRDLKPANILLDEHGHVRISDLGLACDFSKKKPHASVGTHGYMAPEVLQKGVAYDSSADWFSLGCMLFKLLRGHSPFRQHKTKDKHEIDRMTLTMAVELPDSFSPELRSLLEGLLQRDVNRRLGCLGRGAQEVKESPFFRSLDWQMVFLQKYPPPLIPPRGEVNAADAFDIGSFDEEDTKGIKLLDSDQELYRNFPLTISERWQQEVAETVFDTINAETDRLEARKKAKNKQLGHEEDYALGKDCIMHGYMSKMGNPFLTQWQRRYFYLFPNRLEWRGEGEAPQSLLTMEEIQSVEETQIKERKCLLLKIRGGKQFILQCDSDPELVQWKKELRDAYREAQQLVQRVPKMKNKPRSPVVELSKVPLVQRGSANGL
Experimental: as §1, §2, §3, §4, §5

T1 sequence (P34947 whole entry): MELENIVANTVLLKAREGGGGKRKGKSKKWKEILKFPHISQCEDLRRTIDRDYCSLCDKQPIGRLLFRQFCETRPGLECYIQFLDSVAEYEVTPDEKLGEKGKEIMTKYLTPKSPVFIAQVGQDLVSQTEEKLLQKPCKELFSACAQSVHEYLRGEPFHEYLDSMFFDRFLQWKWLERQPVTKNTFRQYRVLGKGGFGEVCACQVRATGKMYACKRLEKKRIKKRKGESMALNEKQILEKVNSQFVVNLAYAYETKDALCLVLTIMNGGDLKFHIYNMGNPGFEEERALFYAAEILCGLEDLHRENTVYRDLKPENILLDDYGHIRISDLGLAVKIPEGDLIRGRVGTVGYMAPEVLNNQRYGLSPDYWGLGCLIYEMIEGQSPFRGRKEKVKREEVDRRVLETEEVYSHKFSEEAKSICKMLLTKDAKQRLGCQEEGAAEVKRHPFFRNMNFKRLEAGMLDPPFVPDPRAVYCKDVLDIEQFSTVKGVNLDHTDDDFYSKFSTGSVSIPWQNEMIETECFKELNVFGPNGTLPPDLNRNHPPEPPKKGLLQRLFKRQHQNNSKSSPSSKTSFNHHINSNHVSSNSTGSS

IC50 (GRK5)	IC50 (GRK2)	Compound
≤ 50 nM	500 to 1000 nM	COc1ccc([C@@H](C)NC(=O)/C(C#N)=C/c2c[nH]c3ncc(O[C@@H]4CCOC4)cc23)cc1OC [Example 107, (E)-2-cyano-N-((R)-1-(3,4-dimethoxyphenyl)ethyl)-3-(5-(((R)-tetrahydrofuran-3-yl)oxy)-1H-pyrrolo[2,3-b]pyridin-3-yl)acrylamide]
50 to 100 nM	> 10000 nM	COc1ccc([C@@H](C)NC(=O)/C(C#N)=C/c2c[nH]c3ncc(OCc4cc(C)nn4C)cc23)cc1OC [Example 101, (R,E)-2-cyano-N-(1-(3,4-dimethoxyphenyl)ethyl)-3-(5-((1,3-dimethyl-1H-pyrazol-5-yl)methoxy)-1H-pyrrolo[2,3-b]pyridin-3-yl)acrylamide]
≤ 50 nM	1000 to 10000 nM	COc1ccc([C@@H](C)NC(=O)C(C#N)=Cc2c[nH]c3ncc(-c4ccc(CCN(C)C)cc4)cc23)cc1OC (stereo in doubt) [Example 135]
50 to 100 nM	1000 to 10000 nM	COc1ccc([C@@H](C)NC(=O)/C(C#N)=C/c2c[nH]c3ncc(-c4cncnc4)cc23)cc1OC [Example 120, (R,E)-2-cyano-N-(1-(3,4-dimethoxyphenyl)ethyl)-3-(5-(pyrimidin-5-yl)-1H-pyrrolo[2,3-b]pyridin-3-yl)acrylamide]
50 to 100 nM	> 10000 nM	COc1ccc(-c2cnc3[nH]cc(/C=C(/C#N)C(=O)N[C@H](C)c4ccc(OC)c(OC)c4)c3c2)cc1OC [Example 146]
100 to 500 nM	> 10000 nM	COc1ccc([C@@H](C)NC(=O)/C(C#N)=C/c2c[nH]c3ncc(C4=CCCCC4)cc23)cc1OC [Example 156, (R,E)-2-cyano-3-(5-(cyclohex-1-en-1-yl)-1H-pyrrolo[2,3-b]pyridin-3-yl)-N-(1-(3,4-dimethoxyphenyl)ethyl)acrylamide]
≤ 50 nM	> 10000 nM	COc1ccc([C@@H](C)NC(=O)/C(C#N)=C/c2c[nH]c3ncc(OC(C)C)cc23)cc1OC [Example 102, (R,E)-2-cyano-N-(1-(3,4-dimethoxyphenyl)ethyl)-3-(5-isopropoxy-1H-pyrrolo[2,3-b]pyridin-3-yl)acrylamide]
100 to 500 nM	1000 to 10000 nM	C[C@@H](NC(=O)/C(C#N)=C/c1c[nH]c2ncc(Br)cc12)c1ccc(F)cc1 [Example 79, (R,E)-3-(5-bromo-1H-pyrrolo[2,3-b]pyridin-3-yl)-2-cyano-N-(1-(4-fluorophenyl)ethyl)acrylamide]
≤ 50 nM	> 10000 nM	COc1ccc([C@@H](C)NC(=O)/C(C#N)=C/c2c[nH]c3ncc(-c4cccc(S(C)(=O)=O)c4)cc23)cc1OC [Example 125]
50 to 100 nM	100 to 500 nM	C[C@@H](NC(=O)/C(C#N)=C/c1c[nH]c2ncc(-c3ccc(N4CCN(C)CC4)cc3)cc12)c1ccc(F)cc1 [Example 180]
100 to 500 nM	1000 to 10000 nM	N#C/C(=C\c1c[nH]c2ncccc12)C(=O)NCc1ccc(F)cc1 [Example 57, (E)-2-cyano-N-(4-fluorobenzyl)-3-(1H-pyrrolo[2,3-b]pyridin-3-yl)acrylamide]
≤ 50 nM	≤ 50 nM	COc1cccc([C@@H](C)NC(=O)/C(C#N)=C/c2c[nH]c3ncccc23)c1 [Example 33, (R,E)-2-cyano-N-(1-(3-methoxyphenyl)ethyl)-3-(1H-pyrrolo[2,3-b]pyridin-3-yl)acrylamide]

Second part, the compound before the results:

Compound	IC50 (GRK5)	IC50 (GRK2)
O=C(/C=C/c1c[nH]c2nccc(Cl)c12)NCc1cccc(F)c1 [Example 8, (E)-3-(4-chloro-1H-pyrrolo[2,3-b]pyridin-3-yl)-N-(3-fluorobenzyl)acrylamide]	1000 to 10000 nM	500 to 1000 nM
C[C@@H](NC(=O)/C=C/c1c[nH]c2ncc(-c3cnn(C)c3)cc12)c1ccc2c(c1)OCO2 [Example 246, (R,E)-N-(1-(benzo[d][1,3]dioxol-5-yl)ethyl)-3-(5-(1-methyl-1H-pyrazol-4-yl)-1H-pyrrolo[2,3-b]pyridin-3-yl)acrylamide]	≤ 50 nM	1000 to 10000 nM
COc1ccc([C@@H](C)NC(=O)/C=C/c2c[nH]c3ncc(-c4cccc([S+]([O-])C(F)(F)F)c4)cc23)cc1OC (stereo partly drawn) [Example 263, (E)-N-((R)-1-(3,4-dimethoxyphenyl)ethyl)-3-(5-(3-((trifluoromethyl)sulfinyl)phenyl)-1H-pyrrolo[2,3-b]pyridin-3-yl)acrylamide]	≤ 50 nM	> 10000 nM
COc1ccc([C@@H](C)NC(=O)/C=C/c2c[nH]c3ncc(-c4cccc(CN5CCN(C)CC5)c4)cc23)cc1OC [Example 183]	≤ 50 nM	> 10000 nM
N#C/C(=C\c1c[nH]c2ncccc12)C(=O)NC(C#N)c1ccccc1 (stereo not drawn) [Example 49, (E)-2-cyano-N-(cyano(phenyl)methyl)-3-(1H-pyrrolo[2,3-b]pyridin-3-yl)acrylamide]	1000 to 10000 nM	> 10000 nM
N#C/C(=C\c1c[nH]c2ncccc12)C(=O)NCc1ccccc1C#N [Example 35, (E)-2-cyano-N-(2-cyanobenzyl)-3-(1H-pyrrolo[2,3-b]pyridin-3-yl)acrylamide]	100 to 500 nM	1000 to 10000 nM
COc1ccc([C@@H](C)NC(=O)/C(C#N)=C/c2c[nH]c3ncc(C(=O)N4CCN(C)CC4)cc23)cc1OC [Example 83, (R,E)-2-cyano-N-(1-(3,4-dimethoxyphenyl)ethyl)-3-(5-(4-methylpiperazine-1-carbonyl)-1H-pyrrolo[2,3-b]pyridin-3-yl)acrylamide]	100 to 500 nM	> 10000 nM
COc1ccc([C@@H](C)NC(=O)/C=C/c2c[nH]c3ncc(-c4cnn(C)c4)cc23)cc1OC [Example 204, (R,E)-N-(1-(3,4-dimethoxyphenyl)ethyl)-3-(5-(1-methyl-1H-pyrazol-4-yl)-1H-pyrrolo[2,3-b]pyridin-3-yl)acrylamide]	≤ 50 nM	1000 to 10000 nM
COc1ccc([C@@H](C)NC(=O)/C=C/c2c[nH]c3nccc(-c4ccc(CN5CCN(C)CC5)cc4)c23)cc1OC [Example 234, (R,E)-N-(1-(3,4-dimethoxyphenyl)ethyl)-3-(4-(4-((4-methylpiperazin-1-yl)methyl)phenyl)-1H-pyrrolo[2,3-b]pyridin-3-yl)acrylamide]	100 to 500 nM	1000 to 10000 nM
COc1ccc([C@@H](C)NC(=O)/C=C/c2c[nH]c3ncc(-c4cncc(S(C)(=O)=O)c4)cc23)cc1OC [Example 218, (R,E)-N-(1-(3,4-dimethoxyphenyl)ethyl)-3-(5-(5-(methylsulfonyl)pyridin-3-yl)-1H-pyrrolo[2,3-b]pyridin-3-yl)acrylamide]	≤ 50 nM	> 10000 nM
CC[C@H](C)Oc1cnc2[nH]cc(/C=C(\C#N)C(=O)N[C@H](C)c3ccc(OC)c(OC)c3)c2c1 [Example 109, (E)-3-(5-((S)-sec-butoxy)-1H-pyrrolo[2,3-b]pyridin-3-yl)-2-cyano-N-((R)-1-(3,4-dimethoxyphenyl)ethyl)acrylamide]	≤ 50 nM	> 10000 nM
C[C@@H](NC(=O)/C=C/c1c[nH]c2ncc(-c3cnn(C)c3)cc12)c1ccc(F)c(F)c1 [Example 257, (R,E)-N-(1-(3,4-difluorophenyl)ethyl)-3-(5-(1-methyl-1H-pyrazol-4-yl)-1H-pyrrolo[2,3-b]pyridin-3-yl)acrylamide]	≤ 50 nM	100 to 500 nM
